In publication PMC9816242, “Human metabolism and excretion kinetics of benzotriazole UV stabilizer UV-327 after single oral administration” (Archives of Toxicology, 2022):

Legend:
clinical [1] = conditions: for relative urinary share of the amount recovered within 72 h: % of the dose recovered in urine within 72 h; for form present in urine (conjugated/unconjugated): urine processed with and without enzymatic hydrolysis; for t1/2 (elimination half-life, renal excretion): from mean excretion curves
Protocol: Enzymatic hydrolysis was performed at 37 °C for 16 h using β-glucuronidase/arylsulfatase from H. pomatia. The analytes and internal standards were extracted by dispersive liquid–liquid microextraction (DLLME) with isopropanol and chloroform. […] The urinary creatinine content was determined photometrically by the Jaffé’s method (Larsen [1972]).
Renal excretion rates (RE, in µg/h) of each analyte at a certain point in time were calculated by the following equation: RE=ci×vi/ti-ti-1
where ci (in µg/l) is the concentration of UV-327 or its metabolites in the urine sample i, vi (in l) is the volume of the respective urine sample, ti (in h) is the elapsed time value of the sampling, and ti−1 (in h) is the elapsed time value of the previous sampling.
Renal excretion kinetics of UV-327 and its metabolites were plotted as temporal progressions of the renal excretion rates RE at the midpoint of the respective sampling periods (ti,m in h), which were calculated as follows: ti,m=ti-1+ti-ti-1/2
Excretion curves were prepared for each study participant and each analyte by plotting the current excretion rates against the average time of the sampling period. Mean excretion curves were then obtained by averaging the closest sampling time points and the corresponding renal excretion rates for all study participants (mean ± standard deviation (SD)). The slopes (kel, elimination rate constant) of the ln-transformed mean excretion curves were used to calculate the elimination half-lives (t1/2) as follows: t1/2=ln(2)/kel
By summing the molar excreted amounts of UV-327 and its metabolites, the cumulative excreted amount of each analyte (in µmol) was calculated for each study participant: ∑i=0nci×vi/M
Furthermore, urinary excretion factors (FUE) as UV-327 dose equivalents (as percentages) were calculated to express the total excretion of UV-327 and its metabolites in urine after 24 h, 48 h, and 72 h: FUE=CEi/MD×100
CEi is the amount of the respective analyte excreted after 24 h, 48 h, and 72 h (in µmol) and MD is the ingested amount of UV-327 (in µmol).
The shares of conjugation of UV-327 and its metabolites were determined by correlation of the urinary excretion rates obtained with and without the performance of enzymatic hydrolysis. The slope of the linear fit describes the percentage of the unconjugated form of the respective analyte.

human estrogen receptor = system: human estrogen receptor; design: method as in Fent et al. [2014]; Sakuragi et al. [2021]; conditions: ref Fent et al. [2014]; Sakuragi et al. [2021]; cited from earlier work
human androgen receptor = system: human androgen receptor; design: method as in Fent et al. [2014]; Sakuragi et al. [2021]; conditions: ref Fent et al. [2014]; Sakuragi et al. [2021]; cited from earlier work
[2] = system: thyroid hormone receptors; design: method as in Nagayoshi et al. [2015]; conditions: ref Nagayoshi et al. [2015]; cited from earlier work
human serum albumin = system: human serum albumin; design: method as in Zhuang et al. [2016]; conditions: ref Zhuang et al. [2016]; cited from earlier work
[3] = design: method as in Cantwell et al. [2015]; conditions: ref Cantwell et al. [2015]; cited from earlier work
clinical [4] = conditions: both, human, whole blood, po, 0.3 mg/kg
Protocol: (§1) The administered dose of UV-327 was calculated with respect to an adequate distance from the no observed adverse effect level (NOAEL) determined in toxicological studies. […] As a result, 0.3 mg of UV-327/kg body weight was administered to each participant.
(§2) For the determination of potential background exposure, one blood and one urine sample of each participant were collected prior to the oral administration of UV-327. 14–29 mg of UV-327 were weighed directly onto a small piece of bread with butter, which was then consumed by the volunteers. Samples of urine and blood were then collected up to 72 h post-application. The participants collected all urine voids in separate containers. The sampling times and volumes of each sample were recorded. The urine samples were aliquoted and stored at − 50 °C until analysis. 9 ml of blood were drawn from peripheral veins at 2 h, 4 h, 6 h, 8 h, 10 h, 24 h, 34 h, 48 h, and 72 h after exposure and collected in EDTA-Monovettes®. Additional blood samples were collected from one subject 14 h, 28 h, and 58 h after exposure. This study participant donated two blood samples at each point in time; one blood sample was centrifuged to obtain plasma samples. Both blood and plasma samples were stored at − 50 °C until analysis.
(§3) Whole blood samples were prepared, processed, and analyzed according to a previously published method (Fischer and Göen [2022]). Proteins and cellular components were precipitated by the addition of acetonitrile. After centrifugation, the supernatants were diluted with water and ammonium acetate buffer. For analyte extraction, chloroform was added. The extracts were evaporated to dryness, followed by the addition of toluene and derivatization with both BSA/TCMS and TSIM. LODs ranged from 0.02 to 0.36 µg/l. […] Mean relative recovery rates ranged from 91% to 118%.
(§4) The blood samples of one study participant were additionally processed with the addition of β-glucuronidase/arylsulfatase from H. pomatia and incubation at 37 °C for 16 h to examine potential conjugation of UV-327 and its metabolites to glucuronide/sulfate.
(§5) A TRACE 1310 gas-chromatographic system equipped with a TriPlus RSH autosampler and a split/splitless injector was used for the analysis of the urine, blood, and plasma samples. The gas-chromatographic system was coupled to a TSQ 9000 triple–quadrupole mass spectrometer equipped with an advanced electron ionization (AEI) source (Thermo Fisher Scientific Inc., Waltham, USA). Chromatographic separation was performed on a (5% phenyl)-methylpolysiloxane low-bleed capillary column (HP-5msUI, 60 m × 250 µm × 0.25 µm, Agilent Technologies, Inc., Santa Clara, USA) at a constant flow rate of 1 ml/min using helium as a carrier gas. Total analysis time was 44 min. The GC–MS/MS equipment and parameter-specific settings were used as described in earlier publications for the analysis of urine (Fischer and Göen [2021]) and blood samples (Fischer and Göen [2022]). Plasma samples were analyzed using the same parameter-specific settings as for the analysis of blood samples.
(§6) Mean concentration–time curves in blood were obtained by plotting the mean blood levels against time. The elimination half-lives (t1/2) were calculated as described above. […] For this purpose, UV-327 equivalents (as percentages) were calculated as follows: ∑i=0ncmax/M×MUV-327×100

clinical [5] = conditions: human, plasma, po, 0.3 mg/kg
Protocol: (§7) For the determination of potential background exposure, one blood and one urine sample of each participant were collected prior to the oral administration of UV-327. 14–29 mg of UV-327 were weighed directly onto a small piece of bread with butter, which was then consumed by the volunteers. Samples of urine and blood were then collected up to 72 h post-application. The participants collected all urine voids in separate containers. The sampling times and volumes of each sample were recorded. The urine samples were aliquoted and stored at − 50 °C until analysis. 9 ml of blood were drawn from peripheral veins at 2 h, 4 h, 6 h, 8 h, 10 h, 24 h, 34 h, 48 h, and 72 h after exposure and collected in EDTA-Monovettes®. […] Both blood and plasma samples were stored at − 50 °C until analysis.
(§8) Stock solutions of each analyte and internal standard (200 mg/l) were prepared in acetone. For calibration, an analyte spiking solution was prepared in a mixture of acetonitrile and aqueous 0.9% NaCl solution (v/v, 1:1), which contained 500 µg/l of each metabolite. For the determination of UV-327, two analyte spiking solutions were prepared, containing 2 mg/l or 40 mg/l of UV-327 in a mixture of acetonitrile and 0.9% NaCl solution (v/v, 1:1). The internal standard spiking solution contained 20 mg/l of D20-UV-327 and 1 mg/l each of D6-UV-327-4-mcx, D6-UV-327-4-mOH, D12-UV-327-4 + 6-diOH, and D6-UV-327-4-mOH-6-mcx. For derivatization, a solution containing 5% (v/v) TSIM in toluene was freshly prepared for each analytical run. Calibration standards were prepared by spiking human plasma with various volumes of the analyte spiking solutions. An eight-point calibration curve in the range of 0.5–25 µg/l was applied for the determination of the metabolites, except for UV-327-4-mOH-6-mcx, for which the calibration range was set to 2–100 µg/l due to higher limits of detection and quantitation. For the determination of UV-327, a nine-point calibration curve in the range of 10–2000 µg/l was applied. A reagent blank sample, containing water instead of plasma, was included in each analytical run. […]

rats [6] = conditions: ref Ema et al. [2006]; cited from earlier work
rats [7] = conditions: ref Ema et al. [2008]; cited from earlier work
rats [8] = conditions: especially male, ref Ema et al. [2008]; cited from earlier work
beagle dogs = conditions: 90-day feeding study, ref CIBA AG [1970]; cited from earlier work
[9] = in vitro; ref Fischer et al. [2020]; cited from earlier work
[10] = UV-327 and metabolites in whole blood of volunteers after single oral administration of UV-327; conditions: for share of the total amount of all analytes at the time point of maximum concentration: blood, UV-327 equivalents at cmax; for time after which mean blood level was below LOD / cmax (maximum blood level): whole blood; for time after which mean blood level was below LOD: single oral 0.3 mg/kg UV-327; for cmax (maximum blood level): single oral 0.3 mg/kg body weight UV-327, n = 3, mean ± SD
Protocol: as §1, §2, §3, §4, §5, §6

[11] = design: method as in Sommer et al. [2020]; conditions: oral administration, ref Sommer et al. [2020]; cited from earlier work
[12] = UV-327 and metabolites in plasma of one volunteer after single oral administration of UV-327; conditions: n = 1; AUC plasma / AUC blood per method
Protocol: as §7, §8

[13] = in vivo, po; cited from earlier work
[14] = both, human, in vivo, po, 0.3 mg/kg
[15] = urine of one participant, with vs without enzymatic hydrolysis
[16] = urine up to 72 h, n = 3, mean ± SD

CC(C)(C)c1cc(-n2nc3ccc(Cl)cc3n2)c(O)c(C(C)(C)C)c1 [UV-327, 2-(5-chloro-benzotriazol-2-yl)-4,6-di-(tert-butyl)phenol]
Cumulative excreted amount (clinical [1]; both, human, in vivo): 0.0016 ± 0.0007 µmol | FUE after 24 h (urinary excretion factor) (clinical [1]; both, human, in vivo): 0.0015 ± 0.0004% | FUE after 48 h (urinary excretion factor) (clinical [1]; both, human, in vivo): 0.0023 ± 0.0007% | FUE after 72 h (urinary excretion factor) (clinical [1]; both, human, in vivo): 0.0026 ± 0.0009% | half-life (clinical [1]; both, human, in vivo): 18.2 h | share of the total 72 h urinary amount (UV-327 and its metabolites) excreted within 24 h (clinical [1]; both, human, in vivo): 61% | share of the total 72 h urinary amount (UV-327 and its metabolites) excreted within 48 h (clinical [1]; both, human, in vivo): 88% | REmax (maximum renal excretion rate) (clinical [1]; [14]): 0.026 ± 0.007 µg/h | Tmax (clinical [1]; [14]): 13.5 ± 0.05 h | Share of conjugation (clinical [1]; human, in vivo): 16% | unconjugated form in urine (clinical [1]; human, in vivo): 84% | relative urinary share of the amount recovered within 72 h (clinical [1]; urine): 9.0% | activity against human estrogen receptor (human estrogen receptor): no activity | activity against human androgen receptor (human androgen receptor): no activity | activity against thyroid hormone receptors [2]: no activity | binding to human serum albumin (human serum albumin): found to bind to human serum albumin by forming hydrogen bonds | Log Kow [3]: 6.75 | Cmax (clinical [4]): 632 ± 114 ng/mL | Tmax (clinical [4]): 6 h | concentration at 24 h (clinical [4]): 103 ± 24 ng/mL | concentration at 72 h (clinical [4]): 27 ± 5 ng/mL | Tmax (clinical [5]): 6 h | oral LD50 (rats [6]): > 5000 mg/kg body weight | reproductive toxicity (rats [7]): did not cause reproductive | liver findings after repeated oral administration (rats [8]): increased liver weights, histopathological changes in hepatic tissue, and alterations in liver-specific blood parameters | NOAEL (beagle dogs): 30 mg/kg/day | extent of metabolism in human liver microsomes [9]: only moderately metabolized | conjugation in blood (with vs without enzymatic hydrolysis) ([10]; blood of one participant, β-glucuronidase/arylsulfatase): not present as conjugates in blood | share of the total amount of all analytes at the time point of maximum concentration [10]: 99.9%

CN(C)CCc1ccc(O)cc1 [N,N-dimethyltyramine]
time to plasma peak level [11]: 30 to 90 min

2-(5-chloro-benzotriazol-2-yl)-4-(1-hydroxy-2-methylpropyl)-6-(tert-butyl)phenol [UV-327-4-mOH]
FUE after 24 h (urinary excretion factor) (clinical [1]; human, in vivo): 0.0016 ± 0.0004% | FUE after 48 h (urinary excretion factor) (clinical [1]; human, in vivo): 0.0022 ± 0.0007% | FUE after 72 h (urinary excretion factor) (clinical [1]; human, in vivo): 0.0026 ± 0.0011% | REmax (maximum renal excretion rate) (clinical [1]; human, in vivo, po, 0.3 mg/kg): 0.032 ± 0.012 µg/h | tmax (time point of maximum renal excretion rate) (clinical [1]; human, in vivo, po, 0.3 mg/kg): 13.5 ± 0.05 h | Share of conjugation (clinical [1]; [15]): 100% | form present in urine (conjugated/unconjugated) (clinical [1]): only present in their conjugated forms | Cumulative excreted amount (clinical [1]; [16]): 0.0016 ± 0.0009 µmol | relative urinary share of the amount recovered within 72 h (clinical [1]; urine): 9.2% | t1/2 (elimination half-life, renal excretion) (clinical [1]; urine, n = 3): 26.7 h | plasma to blood ratio [12]: 1.5 to 1.6 | share of the total amount of all analytes at the time point of maximum concentration [10]: 0.04% | time after which mean blood level was below LOD [10]: 72 h | cmax (maximum blood level) [10]: 0.26 ± 0.10 µg/L

2-(5-chloro-benzotriazol-2-yl)-4,6-di-(1-hydroxy-2-methylpropyl)phenol [UV-327-4 + 6-diOH]
FUE after 24 h (urinary excretion factor) (clinical [1]; human, in vivo): 0.0104 ± 0.0022% | FUE after 48 h (urinary excretion factor) (clinical [1]; human, in vivo): 0.0156 ± 0.0027% | FUE after 72 h (urinary excretion factor) (clinical [1]; human, in vivo): 0.018% | REmax (maximum renal excretion rate) (clinical [1]; human, in vivo, po, 0.3 mg/kg): 0.214 ± 0.058 µg/h | tmax (time point of maximum renal excretion rate) (clinical [1]; human, in vivo, po, 0.3 mg/kg): 10.6 ± 0.08 h | Share of conjugation (clinical [1]; [15]): 100% | form present in urine (conjugated/unconjugated) (clinical [1]): only present in their conjugated forms | Cumulative excreted amount (clinical [1]; [16]): 0.0121 ± 0.0051 µmol | FUE after 72 h (urinary excretion factor) (clinical [1]; urine, % of ingested UV-327 dose, 72 h, n = 3, mean ± SD): 0.0183 ± 0.0030% | relative urinary share of the amount recovered within 72 h (clinical [1]; urine): 64.5% | t1/2 (elimination half-life, renal excretion) (clinical [1]; urine, n = 3): 33.0 h | detection in blood ([10]; blood samples up to 72 h post-exposure): not detected in blood

CCCOC(=O)c1ccc(O)cc1 [propyl paraben]
time to maximum serum level [13]: 1.4 ± 1.1 h

2-(5-chloro-benzotriazol-2-yl)-6-(1-hydroxy-2-methylpropyl)-4-(tert-butyl)phenol [UV-327-6-mOH]
FUE after 24 h (urinary excretion factor) (clinical [1]; human, in vivo): 0.0034 ± 0.0006% | FUE after 48 h (urinary excretion factor) (clinical [1]; human, in vivo): 0.0046 ± 0.0010% | FUE after 72 h (urinary excretion factor) (clinical [1]; human, in vivo): 0.0049 ± 0.0013% | REmax (maximum renal excretion rate) (clinical [1]; human, in vivo, po, 0.3 mg/kg): 0.068 ± 0.06 µg/h | tmax (time point of maximum renal excretion rate) (clinical [1]; human, in vivo, po, 0.3 mg/kg): 8.7 ± 0.21 h | Share of conjugation (clinical [1]; [15]): 100% | form present in urine (conjugated/unconjugated) (clinical [1]): only present in their conjugated forms | Cumulative excreted amount (clinical [1]; [16]): 0.0030 ± 0.0011 µmol | relative urinary share of the amount recovered within 72 h (clinical [1]; urine): 17.2% | t1/2 (elimination half-life, renal excretion) (clinical [1]; urine, n = 3): 13.9 h | plasma to blood ratio [12]: 1.5 to 1.6 | share of the total amount of all analytes at the time point of maximum concentration [10]: 0.04% | time after which mean blood level was below LOD [10]: 48 h | cmax (maximum blood level) [10]: 0.27 ± 0.10 µg/L
